Test results published in US6958141B2, “Rhenium and technetium complexes containing a hypoxia-localizing moiety” (Bracco International B.V., priority 1991, dated 2005).

How the values were obtained:
hypoxic border zone = test: Rat focal cerebral ischemia model (MCA occlusion), double-label autoradiography; type: in vivo, spontaneously hypertensive rats (SHR); settings: SHR, injected 1 hour or five days after MCA occlusion, both time points
Experimental: A model of focal cerebral ischemia involving tandem occlusion of the internal carotid artery and the ipsilateral middle cerebral artery (MCA) in spontaneously hypertensive rats (SHR) was characterized using the double-label autoradiography procedure described in Example 10. […] Following surgery, which was performed under Halothane anesthesia, the rats were allowed to recover and one hour after the MCA occlusion, ^14C-deoxyglucose was injected as an IV bolus and timed arterial samples were obtained. Twenty-five minutes after ^14C-deoxyglucose injection, ^99mTcCl(DMG)32MP was injected as an IV bolus and the rat was sacrificed 15 seconds later. The brain was rapidly removed and sections and autoradiograms were obtained as described in Example 10. As found in Example 10 for the rabbit LAD occlusion model, the ischemic territory was bordered by a rim of tissue in which glycolysis was elevated. […] Nevertheless, it was clear that the ischemic region is surrounded by a border zone of increased glycolysis. In a second series of experiments, the ^99mTc complex of the ligand described in Example 1 and ^14C-deoxyglucose were co-injected 1 hour or five days after MCA occlusion.

[1] = system: Isolated Perfused Rat Heart; test: Isolated perfused heart studies (Langendorff), retention of tracer; set-up: species or system male Sprague Dawley rats; settings: radioactivity 40 minutes after end of 20 minute infusion divided by peak, n=4
Experimental: Hearts were excised from male Sprague Dawley rats (275-325 g) and were perfused retrogradely using the Langendorff method (O. Langendorff, Pfleugers Arch. ges. Physiol, 61, 291, […]) with modifications described previously (W. Rumsey, D. F. Wilson and M. Erecinska, Am. J. Physiol., 253 (Heart Circ. Physiol. 22): H1098, 1987) in the isolated state at 37° C. with Krebs-Henseleit buffer. The perfusate contained [in mM] NaCl, KCl [4.7], CaCl2 [1.8], Na2EDTA [0.5], KH2PO4 [1.2], MgSO4 [1.2], NaHCO3 [25], glucose, pyruvate [0.2], and insulin (12 IU/L) and was equilibrated with O2:CO2 (95:5) (global normoxia) or N2:CO2 (95:5) (global hypoxia). The hearts were paced continuously at 5 Hz. […]
For determination of oxygen consumption, a cannula was placed in the right ventricle via the pulmonary artery. A pump removed a small fraction of the coronary effluent at 1 mL/min., and its oxygen concentration was monitored continuously by an in-line Clark-type electrode. […] Coronary flow was measured by collecting the effluent from the right and left pulmonary arteries in a 10 mL graduated cylinder. Oxygen consumption was calculated from the product of the influent-effluent oxygen concentration difference and the coronary flow. During perfusion with hypoxic medium, only the effluent oxygen concentration was recorded. […]

[2] = system: Calcium-tolerant ventricular myocytes; test: Isolated cardiac myocyte studies, retention of radioactivity; type: cell-based, male Sprague Dawley rats; settings: for Oil: dibutyl phthalate layer; for Oil / PCA Pellet / Cell Pellet: means ±S.E.M.; for PCA Pellet: perchloric acid-precipitated pellet; for Cell Pellet: whole cells passed through dibutyl phthalate; for percentage of activity associated with the protein/membrane fragments: cells disrupted by freezing and thawing (3×)
Excerpt: Calcium-tolerant ventricular myocytes were isolated from hearts of male Sprague Dawley rats (200 g) according to the procedure of Wittenberg and Robinson (B. A. Wittenberg and T. F. Robinson, Cell Tissue Res., 216: 231, 1981) with modifications described previously (W. Rumsey, C. Schlosser, E. M. Nuutinen, M. Robiolio and D. F. Wilson, J. Biol. Chem., 265 (26): 15392, 1990). Cells were used immediately following morphological analysis (using a hemocytometer) of viability and were maintained at 37° C. during the experiments. The number of quiescent, rod shaped cells ranged from 70-90% within a total population of 5-9×10^6 cells.
The isolated myocytes were maintained in either a normoxic, hypoxic or anoxic state. Hypoxia was induced by providing an atmosphere of argon atop of the cells and sealing the flask during the incubation period. Glucose oxidase plus catalase (5/5 mg) was added to argon treated cells to provide anoxia. Cells were suspended (6.5-7.5×10^4 cells/ml) in isolation media and aliquots were added to incubation vials maintained at 37° C.
After incubation with a test compound, myocytes were deproteinated with 1% ice-cold perchloric acid and centrifuged at 12,000 rpm for 30 sec. The supernatent was separated from the pellet and each counted using a LKB 1282 gamma counter. Alternatively, myocytes were separated from the suspending media by passing the cells through 99% dibutyl phthalate by centrifugation at 12,000 rpm for 30 sec. The three phases were separated and counted as described above. Results for the Tc-99m complex of the compound in Example 1 are given below:
Values represent means ±S.E.M. for the number of experiments noted in the parentheses. The values are the percent of total radioactivity represented by each case. PCA pellet=perchloric acid-precipitated pellet which represents the activity associated with proteins/membranes. Cell pellet=whole cells passed through a layer of dibutyl phthalate (oil).
Several Tc-99m complexes were examined in isolated myocytes using the protocol described above. The percentage of activity retained in the cell pellet was determined under anoxic and normoxic states.

[3] = Anoxia (Glucose Oxidase) (n = 4)
[4] = isolated myocytes, several Tc-99m complexes
[5] = separate study, number of experiments in parentheses

Substance: [^99mTc]Oxo[[3,3,9,9-tetramethyl-1-(2-nitro-1H-imidazo-1-yl)-4,8-diazaundecane-2,10-dione dioximato]-(3-)-N,N′,N″,N′″]technetium(V) [^99mTc complex from ligand in Ex. 1]
- uptake in brain autoradiograms (hypoxic border zone): increased uptake in the hypoxic border zone relative to surrounding normoxic tissue
- % Retention of Tracer in the Isolated Perfused Rat Heart, Hypoxia ([1]; N2:CO2 (95:5)): 65.3 ± 3%
- % Retention of Tracer in the Isolated Perfused Rat Heart, Normoxia ([1]; O2:CO2 (95:5)): 33.5 ± 2.5%
- Anoxia/normoxia [2]: 2.7
- Anoxia/normoxia ratio [2]: 2.3
- Hypoxia/normoxia [2]: 1.7
- Oil [2, 3]: 9.0 ± 2.6% of total radioactivity
- PCA Pellet [2, 3]: 55.5 ± 5.8% of total radioactivity
- Cell Pellet [2, 3]: 48.8 ± 4.2% of total radioactivity
- Oil ([2]; Hypoxia (Argon) (n = 4)): 20.1 ± 5.3% of total radioactivity
- PCA Pellet ([2]; Hypoxia (Argon) (n = 4)): 48.5 ± 3.4% of total radioactivity
- Cell Pellet ([2]; Hypoxia (Argon) (n = 4)): 36.9 ± 8.8% of total radioactivity
- Oil ([2]; Normoxia (n = 5)): 22.8 ± 2.2% of total radioactivity
- PCA Pellet ([2]; Normoxia (n = 5)): 40.5 ± 2.7% of total radioactivity
- Cell Pellet ([2]; Normoxia (n = 5)): 23.2 ± 3.7% of total radioactivity
- percentage of activity associated with the protein/membrane fragments ([2]; anoxic (glucose oxidase), n=3): 25.3±2.5%
- percentage of activity associated with the protein/membrane fragments ([2]; normoxic, n=3): 23.3±0.8%
- % in Cell Pellet, Anoxia [2, 4]: 53.0 ± 2.2%
- % in Cell Pellet, Normoxia [2, 4]: 24.1 ± 2.3%
- effect of FCCP (uncoupler) on retention ([2]; normoxic cells): had no effect on the retention
- effect of cyanide on retention ([2]; normoxic cells, n=3): had no effect on retention in normoxic cells
- uptake in isolated myocytes, Anoxia [2, 5]: 48 ± 6 (3)
- uptake in isolated myocytes, Hypoxia [2, 5]: 30 ± 7 (3)
- uptake in isolated myocytes, Normoxia [2, 5]: 18 ± 1 (3)
